Consider 1 compound from patent US20070117770A1, “Human ribosomal DNA (rDNA) and ribosomal RNA (rRNA) nucleic acids and uses thereof” (Cylene Pharmaceuticals, Inc., priority 2005, published 2007).

One assay deals with other kinases. The experiment in a line: Protein kinase inhibition assays (panel, summary). It is filed as biochemical. The following applies: 2.5 μM. As to the method: Certain compounds were tested for activity in protein kinase inhibition assays. All substrates were dissolved and diluted to working stocks in de-ionized water, apart from histone H1 (10× working stock in 20 mM MOPS pH 7.0), PDKtide (10× working stock in 50 mM Tris pH 7.0) ATF2 (which is typically stored at a 20× working stock in 50 mM Tris pH 7.5, 150 mM NaCl, 0.1 mM EGTA, 0.03% Brij-35, 50% glycerol, 1 mM benzamidine, 0.2 mM PMSF and 0.1% R-mercaptoethanol), KKLNRTLSFAEPG (SEQ ID NO:203) and RRRLSFAEPG (SEQ ID NO:204) (50 mM HEPES pH 7.4) and GGEEEEYFELVKKKK (SEQ ID NO:205) (20 mM MOPS pH 7.0). All kinases were pre-diluted to a 10× working concentration prior to addition into the assay. The composition of the dilution buffer for each kinase is detailed below.
The following table denotes percent residual activity of each protein kinase when incubated with compound A-1 or B-1.

Assay [1] deals with fibrillarin in A549 cells. Briefly: Cell fibrillarin localization (immunofluorescence). The class given is cell-based. As to conditions: protocol as for nucleolin. The method, then:
(§1) An assay was conducted to determine the effect of ribosomal nucleic acid interacting compounds on cell nucleolin location. In these studies, A549 cells were plated in borosilicate chamber slides. The cells were treated with 10 uM compound A-1 the next day for two hours, washed with phosphate buffered saline, fixed for 10 minutes in 4% paraformaldehyde, permeabilized for 5 minutes in a 1:1 ethanol:acetone mix, incubated with a 1:100 dilution of an anti-nucleolin monoclonal antibody (catalog no. RDI-NUCLEOLabm; Research Diagnostics, Inc.) in 5% donkey serum, followed by incubation with a 1:100 diluted TRITC-labeled secondary anti-mouse antibody and observed under a fluorescence microscope (e.g., Olympus) in the TRITC channel at 600× magnification. […] Accordingly, nucleolin was redistributed from the nucleolus to the nucleoplasm in cells treated with a compound tested in the assay.
Another assay was conducted to determine the effect of ribosomal nucleic acid interacting compounds on cell fibrillarin location. These studies were conducted using a protocol similar to that described in the preceding paragraph, except an antibody that specifically bound to fibrillarin (catalog no. ab5821; Novus Biologicals, Inc.) was utilized.

For another assay, the system named is nucleolin in A549 cells. Briefly: Cell nucleolin localization (immunofluorescence). It is filed as cell-based. As to conditions: 10 uM, two hours. As to the method: as §1
For a further assay, the target named is T1, nucleolin/8749NT (Homo sapiens, UniProt P19338).
T1 construct: without the N-terminal acidic stretches domain
T1 sequence (P19338 284-710 limits assumed): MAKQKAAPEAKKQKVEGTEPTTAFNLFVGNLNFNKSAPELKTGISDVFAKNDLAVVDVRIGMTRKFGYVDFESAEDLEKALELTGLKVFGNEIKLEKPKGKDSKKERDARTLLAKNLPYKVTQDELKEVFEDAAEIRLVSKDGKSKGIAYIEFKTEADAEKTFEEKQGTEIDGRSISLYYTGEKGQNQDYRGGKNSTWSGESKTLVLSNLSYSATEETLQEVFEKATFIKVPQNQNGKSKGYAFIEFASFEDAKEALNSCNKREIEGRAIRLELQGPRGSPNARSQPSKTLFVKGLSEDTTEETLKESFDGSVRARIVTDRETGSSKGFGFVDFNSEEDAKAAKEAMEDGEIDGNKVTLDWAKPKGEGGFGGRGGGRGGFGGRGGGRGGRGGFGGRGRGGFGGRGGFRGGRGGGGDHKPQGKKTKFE
Briefly: EMSA, interference with nucleolin/nucleic acid ligand interaction. The class given is binding. Details: key to Activity of Compound A-1 (relative interference), ligand 8749NT: +: least interference by compound A-1; ++++: greatest interference by compound A-1. As to the method: (§2) The following assays assessed effects of compounds on interactions between nucleolin and nucleic acid ligands capable of forming quadruplex (QP) and hairpin (HP) secondary structures. Nucleic acid ligands tested were a cMyc QP DNA having nucleotide sequence 5′-[…]-3′ (SEQ ID NO: 176) and a HP pre-rRNA region to which nucleolin binds, having the sequence 5′-[…]-3′ (SEQ ID NO: 177). In the assays, recombinant nucleolin (˜250 nM), which was fused to maltose binding protein and had the sequence under accession number NM_005381 without the N-terminal acidic stretches domain, was incubated with each of the two ^32P-labeled nucleic acid ligands (10 or 250 nM). Nucleolin and the nucleic acid ligand were incubated in the presence or absence of a test compound of Formula A-1, B-1, C-6 or C-7 in an incubation buffer (12.5 mM Tris, pH 7.6, 60 mM KCl, 1 mM MgCl2, 0.1 mM EDTA, 1 mM DTT, 5% glycerol, 0.1 mg/ml BSA) for 30 minutes at room temperature. Structures for A-1 and B-1 are shown above and structures for C-6 and C-7 are shown hereafter: [drawing 17] […]
(§3) The assay also was conducted in a filter-binding format. […] Radioactivity was assayed with MicroBeta scintillation counter (Perkin Elmer). Binding curves were constructed and apparent Kd's and Bmax's for the complexes were calculated using the GraphPad Prizm software program (GraphPad Software). […]
For orientation: In EMSA bound probe runs differently from free probe, usually more slowly.

The target in assay [2] is T2, nucleolin/nucleic acid ligand (Homo sapiens, UniProt P19338).
T2 construct: without the N-terminal acidic stretches domain
T2 sequence (P19338 284-710 limits assumed): as above
The experiment in a line: EMSA, interference with nucleolin/nucleic acid ligand interactions (ligands derived from human ribosomal DNA). It is filed as binding. As to the method: The following assays assessed effects of compounds on interactions between nucleolin and nucleic acid ligands capable of forming quadruplex (QP) and hairpin (HP) secondary structures. Nucleic acid ligands tested were a cMyc QP DNA having nucleotide sequence 5′-[…]-3′ (SEQ ID NO: 176) and a HP pre-rRNA region to which nucleolin binds, having the sequence 5′-[…]-3′ (SEQ ID NO: 177). In the assays, recombinant nucleolin (˜250 nM), which was fused to maltose binding protein and had the sequence under accession number NM_005381 without the N-terminal acidic stretches domain, was incubated with each of the two ^32P-labeled nucleic acid ligands (10 or 250 nM). Nucleolin and the nucleic acid ligand were incubated in the presence or absence of a test compound of Formula A-1, B-1, C-6 or C-7 in an incubation buffer (12.5 mM Tris, pH 7.6, 60 mM KCl, 1 mM MgCl2, 0.1 mM EDTA, 1 mM DTT, 5% glycerol, 0.1 mg/ml BSA) for 30 minutes at room temperature. Structures for A-1 and B-1 are shown above and structures for C-6 and C-7 are shown hereafter: [drawing 17] The resulting complexes were separated on a 6% DNA retardation gel using 0.5× TBE with 20 mM KCl as a running buffer (i.e., electrophoresis mobility shift assay (EMSA)).
The assay also was conducted using nucleic acid ligands derived from human ribosomal DNA. Sequences of these nucleic acids are shown in the preceding example. […]

Assay [3] deals with cellular DNA or RNA in A549 cells. Briefly: Cellular target study, RNase A or DNase I treatment of compound-treated cells. The class given is cell-based. As to conditions: 2 uM. As to the method:
To determine the cellular target of rRNA-interacting compounds, a study was conducted to ascertain whether the compounds could select for cellular DNA or RNA. In these studies A549 cells were plated in borosilicate chamber slides. The cells were treated with 2 uM compound A-1 the next day for one hour or two hours, washed with PBS, fixed for 10 min in 4% paraformaldehyde, permeabilized for 5 min in 1:1 ethanol:acetone mix, treated with 2.5 ug/mL of RNase A or 340 Kunitz units/mL of DNase I and observed under a fluorescence microscope (Olympus) in the Ex360 nm/Em548 nm channel at 600× magnification. […] Accordingly, a compound tested in the assay interacted with RNA preferentially over DNA in cells.

The target of the next assay is T3, nucleolin/6183NT (Homo sapiens, UniProt P19338).
T3 construct: without the N-terminal acidic stretches domain
T3 sequence (P19338 284-710 limits assumed): as above
Briefly: EMSA, interference with nucleolin/nucleic acid ligand interaction. It is filed as binding. Set-up: key to Activity of Compound A-1 (relative interference), ligand 6183NT: +: least interference by compound A-1; ++++: greatest interference by compound A-1. As to the method:
as §2, §3

On to `CN1CCCC1CCNC(=O)c1cn2c3c(c(N4CCC(c5cnccn5)C4)c(F)cc3c1=O)Oc1cc3ccccc3cc1-2` (stereo not shown) [Compound A-1], for which, in the assay on other kinases, the “inhibition of other kinases” value is 60-80%. Further, in assay [1], the “fibrillarin localization in treated cells” value is “caused redistribution of fibrillarin”. Also, the “nucleolin localization in treated cells” value with nucleolin in A549 cells is given as “nucleolin was redistributed to the nucleoplasm”. For the same compound, the “Activity of Compound A-1 (relative interference), ligand 8749NT” value on nucleolin/8749NT is “+”. Further, the IC50 turned out to be 10 µM on nucleolin/8749NT (ligand 8749NT, read-out: IC50, concentration of Compound A-1 required to dissociate half of the complexed nucleic acid ligand and nucleolin protein); 3 µM on nucleolin/6183NT (ligand 6183NT, read-out: IC50, concentration of Compound A-1 required to dissociate half of the complexed nucleic acid ligand and nucleolin protein). Further, the “interference with nucleolin/nucleic acid ligand interactions” value in assay [2] is “interfered with nucleolin/nucleic acid ligand interactions”. In assay [3] (2.5 ug/mL RNase A), the “effect of RNase treatment on nucleolar staining by the drug” value is listed as “significantly reduced nucleolar staining”. Further, the “effect of DNase I treatment on compound localization” value in assay [3] (340 Kunitz units/mL DNase I) is “minimal effect”. Also, the “Activity of Compound A-1 (relative interference), ligand 6183NT” value on nucleolin/6183NT is “+”.
